Where “and” joins values, the source holds several entries; their conditions need not be identical. Equal entries are not always repeated.
Tested on: BDF1 mice, Adenocarcinoma 755 s.c., tumor weight T/C
Assay: NCI In Vivo Anticancer Drug Screen. Data for tumor model Adenocarcinoma 755 (subcutaneous) in B6D2F1 (BDF1) mice
Details: endpoint: mean tumor weight, higher = larger tumour
How it was run: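 Compound activity was tested in mice carrying transplanted tumors. Survival or tumor size was measured, and each value is the treated-group measurement divided by that of the vehicle-treated control group (T/C).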

For c1ccc(CSc2ncnc3nc[nH]c23)cc1, the T/C (dose: 1.5 mg/kg/injection, schedule: Q01DX011 (ip), vehicle: alkali diluted with saline) was 2 % of control, the T/C (dose: 1.5 mg/kg/injection, schedule: Q01DX011 (oral), vehicle: alkali diluted with saline) was 22 % of control and the T/C (dose: 2.5 mg/kg/injection, schedule: Q01DX011 (ip), vehicle: saline) was 35 % of control. For the same molecule, the T/C (dose: 3.0 mg/kg/injection, schedule: Q01DX011 (ip), vehicle: alkali diluted with saline) was 44 % of control, the T/C (dose: 3.0 mg/kg/injection, schedule: Q01DX011 (ip), vehicle: carboxymethylcellulose (CMC)) was 59 % of control and the T/C (dose: 3.0 mg/kg/injection, schedule: Q01DX011 (oral), vehicle: alkali diluted with saline) was 28 % of control. The T/C (dose: 3.1 mg/kg/injection, schedule: Q01DX011 (ip), vehicle: carboxymethylcellulose (CMC)) was 43 % of control, the T/C (dose: 5.0 mg/kg/injection, schedule: Q01DX011 (ip), vehicle: saline) was 12 % of control and the T/C (dose: 6.0 mg/kg/injection, schedule: Q01DX006 (iv), vehicle: saline) was 17 % of control. The T/C (dose: 6.0 mg/kg/injection, schedule: Q01DX011 (im), vehicle: saline) was 12 % of control, the T/C (dose: 6.0 mg/kg/injection, schedule: Q01DX011 (ip), vehicle: alkali diluted with saline) was 16 % of control and the T/C (dose: 6.0 mg/kg/injection, schedule: Q01DX011 (ip), vehicle: carboxymethylcellulose (CMC)) was 22 % of control and 32 % of control. The T/C (dose: 6.0 mg/kg/injection, schedule: Q01DX011 (ip), vehicle: saline) was 2 % of control, the T/C (dose: 6.0 mg/kg/injection, schedule: Q01DX011 (oral), vehicle: alkali diluted with saline) was 16 % of control and the T/C (dose: 6.0 mg/kg/injection, schedule: Q01DX011 (sc), vehicle: steriod suspending solution) was 9 % of control. For the same molecule, the T/C (dose: 6.2 mg/kg/injection, schedule: Q01DX011 (ip), vehicle: carboxymethylcellulose (CMC)) was 15 % of control, the T/C (dose: 10.0 mg/kg/injection, schedule: Q01DX011 (ip), vehicle: saline) was 5 % of control and the T/C (dose: 11.0 mg/kg/injection, schedule: Q07DX002 (ip), vehicle: alkali diluted with saline) was 39 % of control. For the same molecule, the T/C (dose: 12.0 mg/kg/injection, schedule: Q01DX006 (iv), vehicle: saline) was 2 % of control, the T/C (dose: 12.0 mg/kg/injection, schedule: Q01DX011 (im), vehicle: saline) was 3 % of control and the T/C (dose: 12.0 mg/kg/injection, schedule: Q01DX011 (ip), vehicle: carboxymethylcellulose (CMC)) was 3 % of control. For the same molecule, the T/C (dose: 12.0 mg/kg/injection, schedule: Q01DX011 (oral), vehicle: alkali diluted with saline) was 54 % of control, the T/C (dose: 12.0 mg/kg/injection, schedule: Q01DX011 (sc), vehicle: steriod suspending solution) was 5 % of control and the T/C (dose: 12.5 mg/kg/injection, schedule: Q01DX011 (ip), vehicle: carboxymethylcellulose (CMC)) was 3 % of control. For the same molecule, the T/C (dose: 13.0 mg/kg/injection, schedule: Q01DX011 (ip), vehicle: carboxymethylcellulose (CMC)) was 17 % of control, the T/C (dose: 19.0 mg/kg/injection, schedule: Q03DX004 (ip), vehicle: carboxymethylcellulose (CMC)) was 31 % of control and the T/C (dose: 22.0 mg/kg/injection, schedule: Q07DX002 (ip), vehicle: alkali diluted with saline) was 50 % of control. For the same molecule, the T/C (dose: 25.0 mg/kg/injection, schedule: Q01DX006 (iv), vehicle: carboxymethylcellulose (CMC)) was 9 % of control, the T/C (dose: 25.0 mg/kg/injection, schedule: Q01DX006 (iv), vehicle: saline) was 3 % of control and the T/C (dose: 25.0 mg/kg/injection, schedule: Q01DX011 (im), vehicle: saline) was 1 % of control. For the same molecule, the T/C (dose: 25.0 mg/kg/injection, schedule: Q01DX011 (ip), vehicle: saline) was 2 % of control, the T/C (dose: 25.0 mg/kg/injection, schedule: Q01DX011 (oral), vehicle: carboxymethylcellulose (CMC)) was 10 % of control and the T/C (dose: 25.0 mg/kg/injection, schedule: Q01DX011 (sc), vehicle: carboxymethylcellulose (CMC)) was 14 % of control. The T/C (dose: 25.0 mg/kg/injection, schedule: Q01DX011 (sc), vehicle: steriod suspending solution) was 3 % of control, the T/C (dose: 38.0 mg/kg/injection, schedule: Q03DX004 (ip), vehicle: carboxymethylcellulose (CMC)) was 2 % of control and the T/C (dose: 44.0 mg/kg/injection, schedule: Q07DX002 (ip), vehicle: alkali diluted with saline) was 43 % of control. The T/C (dose: 44.0 mg/kg/injection, schedule: Q07DX002 (ip), vehicle: carboxymethylcellulose (CMC)) was 5 % of control, the T/C (dose: 50.0 mg/kg/injection, schedule: Q01DX006 (iv), vehicle: carboxymethylcellulose (CMC)) was 17 % of control and the T/C (dose: 50.0 mg/kg/injection, schedule: Q01DX011 (im), vehicle: carboxymethylcellulose (CMC)) was 8 % of control. The T/C (dose: 50.0 mg/kg/injection, schedule: Q01DX011 (ip), vehicle: carboxymethylcellulose (CMC)) was 3 % of control and 8 % of control, the T/C (dose: 50.0 mg/kg/injection, schedule: Q01DX011 (oral), vehicle: carboxymethylcellulose (CMC)) was 6 % of control and the T/C (dose: 50.0 mg/kg/injection, schedule: Q01DX011 (sc), vehicle: steriod suspending solution) was 1 % of control. The T/C (dose: 75.0 mg/kg/injection, schedule: Q03DX004 (ip), vehicle: carboxymethylcellulose (CMC)) was 2 % of control and 13 % of control, the T/C (dose: 88.0 mg/kg/injection, schedule: Q07DX002 (ip), vehicle: alkali diluted with saline) was 16 % of control and the T/C (dose: 88.0 mg/kg/injection, schedule: Q07DX002 (ip), vehicle: carboxymethylcellulose (CMC)) was 45 % of control. For the same molecule, the T/C (dose: 100.0 mg/kg/injection, schedule: Q01DX011 (im), vehicle: carboxymethylcellulose (CMC)) was 1 % of control and 2 % of control, the T/C (dose: 100.0 mg/kg/injection, schedule: Q01DX011 (ip), vehicle: carboxymethylcellulose (CMC)) was 2 % of control and the T/C (dose: 100.0 mg/kg/injection, schedule: Q01DX011 (sc), vehicle: steriod suspending solution) was 2 % of control. The T/C (dose: 175.0 mg/kg/injection, schedule: Q07DX002 (ip), vehicle: carboxymethylcellulose (CMC)) was 3 % of control and 4 % of control, the T/C (dose: 200.0 mg/kg/injection, schedule: Q01DX011 (im), vehicle: carboxymethylcellulose (CMC)) was 11 % of control and 17 % of control and the T/C (dose: 200.0 mg/kg/injection, schedule: Q01DX011 (oral), vehicle: carboxymethylcellulose (CMC)) was 1 % of control and 6 % of control. The T/C (dose: 200.0 mg/kg/injection, schedule: Q01DX011 (sc), vehicle: carboxymethylcellulose (CMC)) was 17 % of control, the T/C (dose: 300.0 mg/kg/injection, schedule: Q03DX004 (ip), vehicle: carboxymethylcellulose (CMC)) was 6 % of control and the T/C (dose: 350.0 mg/kg/injection, schedule: Q07DX002 (ip), vehicle: carboxymethylcellulose (CMC)) was 1 % of control and 6 % of control. The T/C (dose: 600.0 mg/kg/injection, schedule: Q03DX004 (ip), vehicle: alkali diluted with saline) was 3 % of control and the T/C (dose: 700.0 mg/kg/injection, schedule: Q07DX002 (ip), vehicle: carboxymethylcellulose (CMC)) was 1 % of control.
With C=CCSc1nc(N)nc2nc[nH]c12 the T/C (dose: 2.0 mg/kg/injection, schedule: Q01DX011 (ip), vehicle: methylcellulose (MC)) was 50 % of control, the T/C (dose: 4.0 mg/kg/injection, schedule: Q01DX011 (ip), vehicle: methylcellulose (MC)) was 41 % of control and the T/C (dose: 16.0 mg/kg/injection, schedule: Q01DX011 (ip), vehicle: methylcellulose (MC)) was 3 % of control.
In the case of N#CCCn1cnc2c(=S)nc[nH]c21, the T/C (dose: 14.0 mg/kg/injection, schedule: Q01DX011 (ip), vehicle: other) is reported as 89 % of control.
In the case of CS(=O)(=O)OCCC(=O)NCNC(=O)CCOS(C)(=O)=O, the T/C (dose: 7.0 mg/kg/injection, schedule: Q01DX011 (ip), vehicle: carboxymethylcellulose (CMC)) is reported as 77 % of control, the T/C (dose: 12.5 mg/kg/injection, schedule: Q01DX011 (ip), vehicle: methylcellulose (MC)) is reported as 79 % of control and the T/C (dose: 14.0 mg/kg/injection, schedule: Q01DX011 (ip), vehicle: carboxymethylcellulose (CMC)) is reported as 42 % of control. The T/C (dose: 25.0 mg/kg/injection, schedule: Q01DX011 (ip), vehicle: methylcellulose (MC)) was 39 % of control, the T/C (dose: 28.0 mg/kg/injection, schedule: Q01DX011 (ip), vehicle: carboxymethylcellulose (CMC)) was 4 % of control and the T/C (dose: 28.0 mg/kg/injection, schedule: Q01DX011 (ip), vehicle: methylcellulose (MC)) was 5 % of control. For the same molecule, the T/C (dose: 50.0 mg/kg/injection, schedule: Q01DX011 (ip), vehicle: methylcellulose (MC)) was 3 % of control.
For CSc1ncc(C)c(Nc2ccc(Br)cc2)n1, the T/C (dose: 15.0 mg/kg/injection, schedule: Q01DX011 (ip), vehicle: methylcellulose (MC)) was 111 % of control and the T/C (dose: 31.0 mg/kg/injection, schedule: Q01DX011 (ip), vehicle: methylcellulose (MC)) was 109 % of control.
With COc1ccc2c3c([nH]c2c1)[C@H]1C[C@H]2[C@H](C[C@@H](O)[C@H](OC)[C@H]2CO)CN1CC3 the T/C (dose: 0.5 mg/kg/injection, schedule: Q01DX011 (ip), vehicle: saline) was 91 % of control, the T/C (dose: 1.0 mg/kg/injection, schedule: Q01DX011 (ip), vehicle: saline) was 95 % of control and the T/C (dose: 2.0 mg/kg/injection, schedule: Q01DX011 (ip), vehicle: saline) was 92 % of control.
In the case of O=c1[nH]cnc2c1ncn2CCO, the T/C (dose: 43.75 mg/kg/injection, schedule: Q01DX011 (ip), vehicle: methylcellulose (MC)) is reported as 40 % of control, the T/C (dose: 87.5 mg/kg/injection, schedule: Q01DX011 (ip), vehicle: methylcellulose (MC)) is reported as 100 % of control and the T/C (dose: 175.0 mg/kg/injection, schedule: Q01DX011 (ip), vehicle: methylcellulose (MC)) is reported as 123 % of control. For the same molecule, the T/C (dose: 350.0 mg/kg/injection, schedule: Q01DX011 (ip), vehicle: methylcellulose (MC)) was 99 % of control.
With C=CCC1(CCC)C(=O)NC(=O)NC1=O the T/C (dose: 17.5 mg/kg/injection, schedule: Q01DX011 (ip), vehicle: methylcellulose (MC)) was 79 % of control and 86 % of control, the T/C (dose: 70.0 mg/kg/injection, schedule: Q01DX011 (ip), vehicle: methylcellulose (MC)) was 23 % of control and 41 % of control and the T/C (dose: 140.0 mg/kg/injection, schedule: Q01DX011 (ip), vehicle: methylcellulose (MC)) was 42 % of control.
